Experiments:
primary mouse astrocytes = experiment: Cytoprotective effect on oxidative stress induced by DMNQ (MTT cell viability); assay type: cell-based; details: for cell viability: pre-treated 6 hours with 1 mM, 2 mM, 5 mM, then DMNQ (30 µM) with compound for 16 hours, MTT, Fig. 8
Experimental: A 1-day-old mouse brain was removed, the olfactory bulb was removed, and the meninges were peeled off. After collecting the resultant in a 50 mL tube including HBSS (Hank's balanced salt solution) and centrifuging at 250 × g for 1 minute, the supernatant was removed. 2 mL of trypsin/EDTA (0.5 %), 8 mL of HBSS buffer, and 0.2 mL of DNase were mixed and reacted in a 37 °C constant temperature water bath for 30 minutes. After adding 18 mL of the culture medium and 2 mL of trypsin/EDTA thereto and pipetting 10 times, the resultant was filtered using a 40 µm cell strainer. Then, the supernatant was removed after centrifugation at 800 × g for 2 minutes. After adding 5 mL of the culture solution thereto, the number of cells was confirmed using a hemocytometer and the cells were cultured to obtain primary mouse astrocytes.
After inoculating cells (primary astrocytes, 1 × 10^5 cells) per well in a 96-well plate and culturing at 5 % CO2 and 37 °C for 24 hours to obtain a cell monolayer, the composition was diluted with a cell inoculation medium and the diluted composition each at a concentration of 0 mM, 1 mM, 2 mM, and 5 mM was inoculated at 100 µL/well, and then cultured in a 5 % CO2 and 37 °C incubator for 6 hours. […] Then, after removing the culture medium, 0.5 mg/mL of MTT solution was added to each well in an amount of 100 µL and reacted in a 5 % CO2 and 37 °C incubator for 2 hours. After completely removing the MTT solution and drying the culture plate, the formazan crystals formed in the cells were dissolved with DMSO, and the absorbance was measured at 590 nm with an ELISA plate reader to evaluate cell viability and drug efficacy.

[1] = Stability test under harsh condition (qNMR, maleic acid standard); assay type: physicochemical
Experimental: In order to confirm the stability of the crystalline form of the present invention depending on conditions, a stability test was conducted under harsh conditions.
The magnesium-serinate crystalline form prepared in Example 2 was stored in a solid state at 70 °C and in an aqueous solution having a concentration of 0.5 mg/mL at 25 °C (60.0 % relative humidity) for 21 days, respectively, and then maleic acid was set as a standard substance, and the stability (measurement of content and related materials) was confirmed through qNMR analysis.
For the qNMR analysis method, analysis conditions were established by measuring the spin-lattice relaxation time T1 of the nuclide ^1H of magnesium-serinate on the sample obtained through the preliminary stress test. The T1 value was set at 4.708 seconds, and the measurement waiting time (d1: delay time) and measurement time (at: acquisition time) were set based on this value. The measurement waiting time (d1) was set to 30 seconds, and the measurement time (at) was set to being equal to or greater than the T1 value.
For the ^1H-NMR measurement for qNMR analysis, JEOL's JNM-ECX400I (400 MHz) NMR equipment was used, and spectral width (sw) was set at 6,000 Hz to sufficiently reflect the frequency range from 0 ppm to 10 ppm.

[2] = Evaluation of occurrence of polymorphic transition on storage (PXRD and DSC); assay type: physicochemical; details: for DSC Endothermic Temperature: (dec.)
Experimental: In order to confirm whether the polymorphic transition of the magnesium-serinate crystalline form of the present invention occurs over time, PXRD and DSC analyses were performed in the initial state and after 4 weeks to confirm whether or not the polymorphic transition occurred.
Specifically, the crystalline form prepared in Example 2 was added into a polyethylene bag, placed in a stability chamber under conditions of a temperature of 40 °C and a relative humidity of 75 %, and stored for 4 weeks. PXRD and DSC analyses were performed in substantially the same manner as in Experimental Examples 2 and 3.

[3] = Moisture measurement (Karl Fischer method); assay type: physicochemical; details: 0.5 g of sample
Experimental: (§1) Moisture and pH evaluations were performed in the same manner as in Experimental Example 7, and the heavy metal test and the content test were performed in the same manner as in Example 1.
(§2) The crystalline form of the present application prepared in Example 1 and the amorphous form of AST-011 (Comparative Example 2) were comparatively evaluated for the following test items by the following methods, and the results are shown in Table 7 below. - Appearance evaluation: Visual observation - Moisture measurement: According to the moisture measurement method (Karl Fischer method) of the general test method of the 12th edition of the Korean Pharmacopoeia, measured by adding 0.5 g of the sample into a moisture meter (Mettler Toledo, V10-S, Switzerland). - Infrared spectrum measurement method (IR): Measurement was made with FT-IR equipment (PerkinElmer, Spectrum 2, USA) according to the ATR measurement method of the general test method of the 12th revision of the Korean Pharmacopoeia. - pH measurement: 0.5 g of the sample was added into a 10 mL volumetric flask, and water was added to a final volume of 10 mL, and measurement was made with a pH meter (Mettler Toledo, FP-20 Switzerland). - XRD and DSC analyses: The analyses were performed in the same way as in Experimental Examples 2 and 3.

[4] = pH measurement of aqueous sample; assay type: physicochemical; details: 0.5 g of sample in water, final volume 10 mL
Experimental: as §1, §2

[5] = Appearance evaluation on storage (visual observation); assay type: physicochemical; details: storage for 3 months under the same conditions as AST-011
Source text: as §2, with “3. […]” for “3.”

[6] = 25°C, Aqueous solution state (0.5 mg/mL, 60.0 % relative humidity), initial state
[7] = 70°C, Solid state, initial state
[8] = initial vs after 4 weeks at 40 °C, relative humidity 75 %

SMILES	cytotoxicity at 30 µM (primary mouse astrocytes; Mus musculus, Astrocyte, 16 h, read-out: cells killed by oxidative stress)	cell viability (primary mouse astrocytes)	Purity of magnesium-serinate (%) ([1]; 25°C, Aqueous solution state (0.5 mg/mL, 60.0 % relative humidity), 9 days)	Concentration of Total Related Materials (%) ([1]; 25°C, Aqueous solution state (0.5 mg/mL, 60.0 % relative humidity), 21 days)	Concentration of Total Related Materials (%) [1, 6]	Purity of magnesium-serinate (%) [1, 6]	Purity of magnesium-serinate (%) ([1]; 70°C, Solid state, 9 days)	Concentration of Total Related Materials (%) ([1]; 70°C, Solid state, 21 days)	Concentration of Total Related Materials (%) [1, 7]	Purity of magnesium-serinate (%) [1, 7]	DSC Endothermic Temperature ([2]; after 4 weeks at 40 °C and relative humidity of 75 %, polyethylene bag)	Result of Comparative Analysis [2, 8]	Result of PXRD Analysis [2, 8]	DSC Endothermic Temperature ([2]; initial)	Moisture Content [3]	Moisture Content ([3]; listed as Example 2)	pH [4]	Appearance (stability) [5]
COC1=C(OC)C(=O)c2ccccc2C1=O [DMNQ, 1,4-naphthoquinone]	~50%																	
N[C@@H](CO)C(=O)O [Comparative Example 1, L-serine]		excellent																
N[C@@H](CO)C(=O)[O-].N[C@@H](CO)C(=O)[O-].[Mg+2] [Crystalline Form of Present Application, magnesium-di-(2S)-2-amino-3-hydroxypropanoate]		excellent	100.07%	0.00%	0.00%	100.12%	100.15%	0.00%	0.00%	100.12%	282.5 °C (dec.)	no occurrence of polymorphic transition	same crystalline form	283.0 °C (dec.)	0.2%	0.1%	10.3	Fig. 7(b) light gray or white powder (stability: no change after 3 months)

From patent EP4635959A1, “NOVEL CRYSTALLINE FORM OF MAGNESIUM-SERINATE AND METHOD FOR PRODUCING SAME” (Astrogen, Inc., priority 2022, dated 2024)
